In article PMC3961306, “Comparison of the Cancer Gene Targeting and Biochemical Selectivities of All Targeted Kinase Inhibitors Approved for Clinical Use” (PLoS ONE, 2014):
Like-named read-outs stand apart in the source and are kept apart here.

Key:
Assay in all cases: Kinase profiling in a biochemical assay panel (mobility shift assays and ELISA), %-inhibition at 1 μM; selectivity entropy
[1] = molecular target: panel of more than 300 wild-type and mutant kinases (313 kinase panel) (Homo sapiens, UniProt P16234, T674I); conditions: kinase PDGFRα(T674I); 1 μM
panel of more than 300 wild-type and mutant kinases (313 kinase panel) (Homo sapiens, UniProt P16234, T674I), sequence (P16234 24-1089 T674I): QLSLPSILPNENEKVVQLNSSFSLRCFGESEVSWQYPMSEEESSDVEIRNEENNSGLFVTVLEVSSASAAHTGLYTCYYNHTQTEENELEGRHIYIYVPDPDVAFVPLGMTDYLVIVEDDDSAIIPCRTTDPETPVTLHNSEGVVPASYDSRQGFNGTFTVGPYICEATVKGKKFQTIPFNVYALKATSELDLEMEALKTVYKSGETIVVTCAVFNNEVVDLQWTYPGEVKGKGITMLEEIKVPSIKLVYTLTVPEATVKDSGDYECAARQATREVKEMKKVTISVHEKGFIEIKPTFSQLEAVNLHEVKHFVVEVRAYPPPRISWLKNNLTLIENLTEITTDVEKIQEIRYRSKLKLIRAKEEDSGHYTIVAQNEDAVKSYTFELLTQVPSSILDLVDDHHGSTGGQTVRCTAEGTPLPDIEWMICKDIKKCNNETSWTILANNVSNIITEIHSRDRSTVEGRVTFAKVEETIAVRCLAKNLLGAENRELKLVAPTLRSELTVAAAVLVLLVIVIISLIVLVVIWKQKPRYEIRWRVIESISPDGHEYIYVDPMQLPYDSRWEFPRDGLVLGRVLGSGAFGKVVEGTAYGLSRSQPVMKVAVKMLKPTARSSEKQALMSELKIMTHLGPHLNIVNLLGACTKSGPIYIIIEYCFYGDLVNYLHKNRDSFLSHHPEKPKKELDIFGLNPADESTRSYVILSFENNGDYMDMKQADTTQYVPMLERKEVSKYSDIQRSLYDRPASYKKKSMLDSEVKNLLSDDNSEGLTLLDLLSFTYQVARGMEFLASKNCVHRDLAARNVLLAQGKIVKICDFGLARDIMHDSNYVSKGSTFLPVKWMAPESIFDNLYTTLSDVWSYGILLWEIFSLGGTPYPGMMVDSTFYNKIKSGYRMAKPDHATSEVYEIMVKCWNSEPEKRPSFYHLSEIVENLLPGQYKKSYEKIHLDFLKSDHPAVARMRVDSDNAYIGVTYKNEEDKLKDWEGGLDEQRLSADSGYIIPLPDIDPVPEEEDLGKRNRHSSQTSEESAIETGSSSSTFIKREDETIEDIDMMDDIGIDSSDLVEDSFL

[2] = molecular target: T1, panel of more than 300 wild-type and mutant kinases (313 kinase panel) (Homo sapiens, UniProt Q9UL54)
T1 sequence (Q9UL54 1-1235): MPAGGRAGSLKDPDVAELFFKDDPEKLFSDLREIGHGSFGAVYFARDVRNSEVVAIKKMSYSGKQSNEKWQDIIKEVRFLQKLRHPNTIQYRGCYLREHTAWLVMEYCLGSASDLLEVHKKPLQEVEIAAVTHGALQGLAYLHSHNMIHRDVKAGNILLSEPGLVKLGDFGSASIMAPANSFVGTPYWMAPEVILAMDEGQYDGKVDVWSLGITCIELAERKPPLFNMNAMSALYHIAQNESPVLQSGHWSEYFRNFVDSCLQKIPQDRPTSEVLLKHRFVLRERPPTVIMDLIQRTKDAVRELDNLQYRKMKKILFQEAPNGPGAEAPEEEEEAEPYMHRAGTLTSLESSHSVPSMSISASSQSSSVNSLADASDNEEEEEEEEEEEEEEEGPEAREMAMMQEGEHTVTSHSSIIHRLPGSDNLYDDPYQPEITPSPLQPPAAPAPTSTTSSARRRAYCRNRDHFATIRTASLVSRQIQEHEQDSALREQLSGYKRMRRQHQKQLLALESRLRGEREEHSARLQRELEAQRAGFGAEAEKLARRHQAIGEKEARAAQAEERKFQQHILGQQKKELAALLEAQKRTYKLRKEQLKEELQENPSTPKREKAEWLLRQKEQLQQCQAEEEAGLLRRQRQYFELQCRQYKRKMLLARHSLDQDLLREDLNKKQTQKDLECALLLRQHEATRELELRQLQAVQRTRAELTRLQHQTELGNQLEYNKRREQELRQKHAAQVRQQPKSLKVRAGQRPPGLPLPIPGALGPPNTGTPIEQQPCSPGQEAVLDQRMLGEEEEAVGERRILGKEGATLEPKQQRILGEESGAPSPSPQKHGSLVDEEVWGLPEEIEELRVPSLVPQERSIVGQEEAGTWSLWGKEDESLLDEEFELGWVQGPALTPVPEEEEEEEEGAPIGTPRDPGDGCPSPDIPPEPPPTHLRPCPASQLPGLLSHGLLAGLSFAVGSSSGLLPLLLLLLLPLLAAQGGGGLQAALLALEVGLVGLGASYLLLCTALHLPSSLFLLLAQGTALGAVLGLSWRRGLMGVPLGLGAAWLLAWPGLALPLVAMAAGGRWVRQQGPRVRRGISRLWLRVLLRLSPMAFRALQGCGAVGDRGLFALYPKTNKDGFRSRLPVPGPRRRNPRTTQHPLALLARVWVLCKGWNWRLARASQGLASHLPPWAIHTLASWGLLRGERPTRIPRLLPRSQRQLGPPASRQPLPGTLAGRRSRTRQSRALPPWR

[3] = molecular target: T2, panel of more than 300 wild-type and mutant kinases (313 kinase panel) (Homo sapiens, UniProt P52333)
T2 sequence (P52333 1-1124): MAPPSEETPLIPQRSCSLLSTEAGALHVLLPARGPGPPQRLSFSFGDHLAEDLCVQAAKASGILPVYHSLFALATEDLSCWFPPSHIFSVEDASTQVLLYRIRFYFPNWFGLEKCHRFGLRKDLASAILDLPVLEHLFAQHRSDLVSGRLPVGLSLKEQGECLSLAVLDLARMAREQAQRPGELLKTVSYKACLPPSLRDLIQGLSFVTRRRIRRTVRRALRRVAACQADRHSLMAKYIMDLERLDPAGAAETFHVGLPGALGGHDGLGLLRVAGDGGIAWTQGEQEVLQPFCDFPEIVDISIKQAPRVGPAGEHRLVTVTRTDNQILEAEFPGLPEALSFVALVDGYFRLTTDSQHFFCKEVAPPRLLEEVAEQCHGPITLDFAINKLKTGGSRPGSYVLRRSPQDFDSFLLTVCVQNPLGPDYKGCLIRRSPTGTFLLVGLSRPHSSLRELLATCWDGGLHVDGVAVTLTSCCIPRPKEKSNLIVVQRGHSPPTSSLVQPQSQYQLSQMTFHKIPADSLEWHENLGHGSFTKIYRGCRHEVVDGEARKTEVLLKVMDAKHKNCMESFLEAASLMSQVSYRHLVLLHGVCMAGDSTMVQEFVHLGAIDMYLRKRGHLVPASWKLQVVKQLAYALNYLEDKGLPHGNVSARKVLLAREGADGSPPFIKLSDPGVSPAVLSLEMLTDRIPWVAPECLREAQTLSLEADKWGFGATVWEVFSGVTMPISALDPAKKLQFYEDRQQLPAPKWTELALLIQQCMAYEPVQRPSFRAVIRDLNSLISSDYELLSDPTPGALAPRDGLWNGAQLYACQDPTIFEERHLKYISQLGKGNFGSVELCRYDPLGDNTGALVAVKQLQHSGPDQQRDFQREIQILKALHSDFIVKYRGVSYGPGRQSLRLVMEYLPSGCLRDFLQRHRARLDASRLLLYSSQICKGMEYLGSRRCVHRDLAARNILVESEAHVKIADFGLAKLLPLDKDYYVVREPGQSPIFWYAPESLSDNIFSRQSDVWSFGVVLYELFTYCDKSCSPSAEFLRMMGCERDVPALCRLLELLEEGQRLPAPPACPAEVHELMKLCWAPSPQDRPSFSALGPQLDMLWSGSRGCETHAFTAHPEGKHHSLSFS

[4] = molecular target: panel of more than 300 wild-type and mutant kinases (313 kinase panel) (Homo sapiens, UniProt P08069)
[5] = molecular target: panel of more than 300 wild-type and mutant kinases (313 kinase panel) (Homo sapiens, UniProt Q13464)
[6] = molecular target: panel of more than 300 wild-type and mutant kinases (313 kinase panel) (Homo sapiens, UniProt P68400)

SMILES | %-inhibition of PDGFRα(T674I) [1] | %-inhibition of TAOK2 ([2]; kinase TAOK2, 1 μM) | %-inhibition of JAK3 ([3]; kinase JAK3, compound at 1 μM) | %-inhibition of IGF1R ([4]; kinase IGF1R, compound at 1 μM) | %-inhibition of ROCK1 ([5]; kinase ROCK1, 1 μM) | %-inhibition, CK2α1/β ([6]; kinase CK2α1/β, 1 μM compound) | %-inhibition, CK2α1/β ([6]; 1 µM) | %-inhibition of ROCK1 ([5]; 1 µM) | %-inhibition of IGF1R [4] | %-inhibition of TAOK2 ([2]; 1 µM) | %-inhibition of JAK3 ([3]; 1 µM)
CC(C)(C)c1nc(-c2cccc(NS(=O)(=O)c3c(F)cccc3F)c2F)c(-c2ccnc(N)n2)s1 [dabrafenib] | 18% | 34% | 22% |  |  |  |  |  |  |  | 
CCCS(=O)(=O)Nc1ccc(F)c(C(=O)c2c[nH]c3ncc(-c4ccc(Cl)cc4)cc23)c1F [vemurafenib] | 1.49% | 5.35% | 10% | 10% | 1.28% | -5.39% |  |  |  |  | 
C[C@@H](Oc1cc(-c2cnn(C3CCNCC3)c2)cnc1N)c1c(Cl)ccc(F)c1Cl [crizotinib] | 95% | 33% | 77% |  | 3.39% |  | -6.39% |  |  |  | 
Cc1ccc(C(=O)Nc2ccc(CN3CCN(C)CC3)c(C(F)(F)F)c2)cc1C#Cc1cnc2cccnn12 [ponatinib] | 99% | 74% | 98% | 17% | 39% |  |  |  |  |  | 
O=S(=O)(c1cccc2cnccc12)N1CCCNCC1 [fasudil] | 21% | -2.59% | 4.46% | -13% | 83% | -4% |  |  |  |  | 
COc1cc(Nc2c(C#N)cnc3cc(OCCCN4CCN(C)CC4)c(OC)cc23)c(Cl)cc1Cl [bosutinib] | 57% | 10% | 67% | 15% | 1.43% |  |  |  |  |  | 
CO[C@H]1C[C@@H]2CC[C@@H](C)[C@@](O)(O2)C(=O)C(=O)N2CCCC[C@H]2C(=O)O[C@H]([C@H](C)C[C@@H]2CC[C@@H](OCCO)[C@H](OC)C2)CC(=O)[C@H](C)/C=C(\C)[C@@H](O)[C@@H](OC)C(=O)[C@H](C)C[C@H](C)/C=C/C=C/C=C/1C [everolimus] | 0.248% | -0.8% | -4.43% | -3.24% | -3.7% | -4.26% |  |  |  |  | 
Cc1ccc(Nc2nccc(N(C)c3ccc4c(C)n(C)nc4c3)n2)cc1S(N)(=O)=O [pazopanib] |  | 53% | 38% |  | -1.24% | -3% |  |  |  |  | 
CNC(=O)c1cc(Oc2ccc(NC(=O)Nc3ccc(Cl)c(C(F)(F)F)c3)c(F)c2)ccn1 [regorafenib] | 92% | 75% | 31% | -1.72% | 11% | -9% |  |  |  |  | 
CO[C@H]1C[C@@H]2CC[C@@H](C)[C@@](O)(O2)C(=O)C(=O)N2CCCC[C@H]2C(=O)O[C@H]([C@H](C)C[C@@H]2CC[C@@H](OC(=O)C(C)(CO)CO)[C@H](OC)C2)CC(=O)[C@H](C)/C=C(\C)[C@@H](O)[C@@H](OC)C(=O)[C@H](C)C[C@H](C)/C=C/C=C/C=C/1C [temsirolimus] | -2.73% |  | -2% | -4.62% | -0.679% | -6.65% |  |  |  |  | 
N#CC[C@H](C1CCCC1)n1cc(-c2ncnc3[nH]ccc23)cn1 [ruxolitinib] | 17% | 35% |  | 1.31% |  | -6% |  | 66% |  |  | 
C#Cc1cccc(Nc2ncnc3cc(OCCOC)c(OCCOC)cc23)c1 [erlotinib] |  |  |  |  |  |  | 0% | 1.9% | 7% | -8% | 55%
